In the NIST ThermoML archive (doi:10.1016/j.fluid.2004.11.019):

Details: Liquid

CCO [ethanol]
mass density [kg/m3]
Details | 100 kPa | 10000 kPa | 20000 kPa | 30000 kPa | 40000 kPa
298.15 K | 785.7 | 794 | 801.9 | 808.9 | 815.7
323.15 K | 763.7 | 773.4 | 782.3 | 790.3 | 797.7
348.15 K | 739.4 | 751.2 | 761.2 | 770.3 | 778.6
